Values quoted from earlier work, collected in the PKSmart pharmacokinetics tables (Seal et al. 2025).

Experiments:
[1] = Lombardo et al. 2013, J Clin Pharmacol 53:178, doi 10.1177/0091270012440282; conditions: for Vd / clearance: in vivo, iv; for fraction unbound: plasma
[2] = Lombardo, Berellini, Obach 2018, Drug Metab Dispos 46:1466, doi 10.1124/dmd.118.082966; conditions: human; for MRT / Vd / clearance / half-life: in vivo, iv; for fraction unbound: plasma

SMILES	MRT [2] [h]	Vd [2] [L/kg]	clearance [2] [mL/min/kg]	half-life [2] [h]	fraction unbound [2]	also measured
CN[C@@H]1C[C@H]2O[C@@](C)([C@@H]1OC)n1c3ccccc3c3c4c(c5c6ccccc6n2c5c31)C(=O)N[C@@H]4O						Vd ([1]; dog): 6.09 L/kg; clearance ([1]; dog): 10.2 mL/min/kg; fraction unbound ([1]; dog): 0.0074; Vd ([1]; rat): 16.7 L/kg; clearance ([1]; rat): 65 mL/min/kg
COc1ccc(-c2nc3ccc(C4=NNC(=O)CC4C)cc3[nH]2)cc1 (centres undefined)						Vd ([1]; rat): 3.5 L/kg
CC(C)=CCN1CC[C@@]2(C)c3cc(O)ccc3C[C@@H]1[C@@H]2C						Vd ([1]; monkey): 9.62 L/kg; clearance ([1]; monkey): 56.6 mL/min/kg
O=C(O)CCCCO/N=C(/c1cccnc1)c1cccc(C(F)(F)F)c1						Vd ([1]; rat): 0.78 L/kg; clearance ([1]; rat): 2 mL/min/kg; fraction unbound ([1]; rat): 0.05
Cn1cncc1[C@@](N)(c1ccc(Cl)cc1)c1ccc2c(c1)c(-c1cccc(Cl)c1)cc(=O)n2C	3.07	0.93	5.03	2.52	0.006	
CC[C@@H](C)N(C)C(=O)c1cc2ccccc2c(-c2ccccc2Cl)n1	5.4	1.7	5.9	3.7		
C=CCOc1ccccc1OC[C@H](O)CNC(C)C	1.56	0.72	7.7	1.09	0.19	
Cc1ccc(N(CC2=NCCN2)c2cccc(O)c2)cc1			42	2.5		
Nc1ccn([C@@H]2CO[C@H](CO)S2)c(=O)n1	3.6	0.84	3.9	8.92		
COc1ccc(CCN(C)CCCN2Cc3cc(OC)c(OC)cc3C2=O)cc1OC	2.62	2.4	15.7	2.04	0.12	
C=C[C@@H]1C[C@]1(NC(=O)C1C[C@@H](Oc2ncc(OC)c3ccc(Cl)cc23)CN1C(=O)C(NC(=O)OC(C)(C)C)C(C)(C)C)C(=O)NS(=O)(=O)C1CC1 (some centres undefined)	3.92	2.77	11.8	20	0.012	
CCOc1cc(Cc2cnc(N)nc2N)cc(OCC)c1-n1cccc1		2.5	3.5	9.4	0.12	
Cn1c(=N)c(NC(=O)NCCN)cn1CC1=C(C(=O)O)N2C(=O)C(=NC(=O)C(NOC(C)(C)C(=O)O)c3nsc(N)n3)[C@H]2SC1 (some centres undefined)	2.39	0.17	1.16	2.58	0.81	
CN(C)C(=O)Oc1cccc([N+](C)(C)C)c1	1.3	0.74	9.2	1.3		
COc1ccc2[nH]c3c(c2c1)CCN[C@]31CS[C@@H]2c3c(OC(C)=O)c(C)c4c(c3[C@H](COC1=O)N1[C@@H]2[C@H]2c3c(cc(C)c(OC)c3O)C[C@@H]([C@@H]1O)N2C)OCO4	44	7.3	2.76	50.7		
CNC(=O)c1ccccc1Sc1ccc2c(/C=C/c3ccccn3)n[nH]c2c1			5	4.3	0.004	
CN1C[C@H](CNC(=O)OCc2ccccc2)C[C@@H]2c3cccc4c3c(cn4C)C[C@H]21	1	0.57	9.6	0.93		
O=c1[nH]c(=O)n(C2CCCO2)cc1F (centres undefined)	10.8	0.62	0.95	8.69		
COc1cc2c(cc1OC)CN(c1cc(N)c3cc(OC)c(OC)cc3n1)CC2	7.6	6.3	14	5.9		
COc1cccc2c1C(=O)c1c(O)c3c(c(O)c1C2=O)C[C@@](O)(C(C)=O)C[C@@H]3O[C@H]1C[C@H](N)[C@H](O)[C@H](C)O1	11.2	32	47.6	14.2	0.06	
CC(C)NC[C@@H](O)COc1cccc2c1N(C(=O)c1cccnc1)CCC2	3.1	0.67	3.6	12.4		
CNCC[C@@H](O)[C@@H]1C[C@H](SC2=C(C(=O)O)N3C(=O)C([C@@H](C)O)[C@H]3[C@H]2C)CN1 (some centres undefined)	2.04	0.22	2.02	1.48		

SMILES	MRT [2] [h]	Vd [2] [L/kg]	clearance [2] [mL/min/kg]	half-life [2] [h]	fraction unbound [2]	also measured
CC(=O)O[C@H]1C[C@@H]2CC[C@@H]3[C@H](CC[C@@]4(C)[C@H]3C[C@H]([N+]3(C)CCCCC3)[C@@H]4OC(C)=O)[C@@]2(C)C[C@@H]1[N+]1(C)CCCCC1	2.2	0.2		1.9	0.09	
Cc1nc(=O)c2cc(CN(C)c3ccc(C(=O)NC(CCC(=O)O)C(=O)O)s3)ccc2[nH]1 (centres undefined)	123	6.57	0.9	140	0.05	
CC[C@H]1OC(=O)C[C@@H](O)[C@H](C)[C@@H](O[C@@H]2O[C@H](C)C[C@H](N(C)C)[C@@H]2O)[C@@H](CC=O)CC(C)C(=O)C=C[C@]2(C)O[C@H]2[C@@H]1C (some centres undefined)	3.54	2.83	13.3	3.34		
N#C[C@H]1CC2C[C@H]2N1C(=O)C(N)C12CC3CC(CC(O)(C3)C1)C2 (some centres undefined)	4.1	1.8	7.1	7.5	1	
COc1cccc2c(C(=O)N3CCN(C)C(C)C3)cn(CC3CCCCC3)c12 (centres undefined)	5.7	1	3	4.2		
CCC(CC)COC(C(=O)OCCN(C)C)(c1ccccc1)c1ccccc1	21	7.1	5.7	34		
CCC(=O)NCC[C@@H]1CCc2ccc3c(c21)CCO3	1.3	1.05	13.1	1.9	0.2	
CC(=O)Oc1ccc2c3c1O[C@H]1[C@@H](OC(C)=O)C=C[C@H]4[C@@H](C2)N(C)CC[C@@]341	0.1	1.31	212	0.062		
O=C(O)C(O)Cc1ccc(O)c(O)c1 (centres undefined)	0.53	0.38	17.8	0.37		
Cc1nccn1CC1CCc2c(c3ccccc3n2C)C1=O (centres undefined)	5.2	1.8	5.8	3.4		
OCCN(CCc1c[nH]c2ccccc12)Cc1ccc(/C=C/C(O)=NO)cc1	4.78	2.17	7.6	12.4	0.23	
CS(=O)(=O)c1ccc(C(=O)Nc2ccc(Cl)c(-c3ccccn3)c2)c(Cl)c1	341		0.01	245		
CCCN(CCc1cccs1)[C@H]1CCc2c(O)cccc2C1	2.6	5.7	37	4	0.08	
CC/C=C\C/C=C\C/C=C\C/C=C\C/C=C\C/C=C\CCC(=O)OC(C(=O)O[C@H]1C[C@@]2(O)[C@@H](OC(=O)c3ccccc3)[C@@H]3[C@]4(OC(C)=O)CO[C@@H]4C[C@H](O)[C@@]3(C)C(=O)C(OC(C)=O)=C(C1C)C2(C)C)[C@@H](NC(=O)c1ccccc1)c1ccccc1 (some centres undefined)	45		0.025	60	0.0038	
C[C@@H]1C[C@H]2[C@@H]3C[C@H](F)C4=CC(=O)C=C[C@]4(C)[C@H]3[C@@H](O)C[C@]2(C)C1C(=O)CO (some centres undefined)	1.6	0.68	7	1.3	0.04	
O=C(O)CCCC[C@H]1CCSS1	0.13	0.11	13.4	0.21		
COC(=O)C1=C(C)NC(C)=C(C(=O)OCCCN2CCC(c3ccccc3)(c3ccccc3)CC2)[C@@H]1c1cccc([N+](=O)[O-])c1	15	8.4	9.3	22		
C/C=C/c1cc(OC)c(OC)cc1OC	1.9	1	8.8	3.7		
CN1C2CCC1CC(=C1c3ccccc3CSc3ccccc31)C2	39.5	11.8	4.98	29.8		
CC(=O)O[C@H]1C[C@@]2(C)[C@@H](C[C@@H](O)[C@H]3[C@]4(C)CC[C@@H](O)[C@@H](C)[C@@H]4CC[C@]32C)/C1=C(/CCC=C(C)C)C(=O)O	10.6	0.23	0.35	9.8	0.02	
CCN(CC)Cc1cc(Nc2ccnc3cc(Cl)ccc23)ccc1O	1.34	17.4	217	2.1		
O=C(O)CCCC[C@@H]1CCSS1	0.14	0.1	11.5	0.21		

SMILES	MRT [2] [h]	Vd [2] [L/kg]	clearance [2] [mL/min/kg]	half-life [2] [h]	fraction unbound [2]	also measured
COc1ccccc1OC[C@H](O)CN1CCN(CC(=O)Nc2c(C)cccc2C)CC1	2.1	1.2	9.5	1.8	0.38	
CON=C(C(=O)NC1C(=O)N2C(C(=O)O)=C(CSc3cnns3)CS[C@H]12)c1csc(N)n1 (some centres undefined)	0.82	0.2	4.1	1.14	0.12	
CO[C@]1(NC(=O)CSC(F)F)C(=O)N2C(C(=O)O)=C(CSc3nnnn3CCO)CO[C@@H]21	0.77	0.19		0.6	0.64	
COc1ccc(C(=O)Nc2ccccc2CCC2CCCCN2C)cc1 (centres undefined)	2.8	2.2	13	2.6		
N=C(N)NC(=O)c1cnn(-c2cccc3ncccc23)c1C1CC1	1.3	1.7		2		
CCCc1nn(C)c2c(=O)[nH]c(-c3cc(S(=O)(=O)N4CCN(C)CC4)ccc3OCC)nc12	2.5	1.36		2.2		
C[C@H]1c2cccc(O)c2C(=O)C2=C(O)[C@]3(O)C(=O)C(C(N)=O)=C(O)[C@@H](N(C)C)[C@@H]3[C@@H](O)[C@@H]21	25	0.69	0.46	14		
CCCCC1=NC2(CCCC2)C(=O)N1Cc1ccc(-c2ccccc2-c2nnn[nH]2)cc1	6.8	0.94	2.3	14	0.1	
[H]/N=C(\N)c1cccc(CC(C(=O)OC)[C@@H](C)NC(=O)c2ccc(-c3cc[n+]([O-])cc3)cc2)c1 (some centres undefined)	2.02	0.89	7.38	3		
COP(=O)(c1cc(C)cc(/C=C/C#N)c1)c1c(C(N)=O)[nH]c2ccc(Cl)c(F)c12 (centres undefined)	8.9	0.97	1.83	7.4		
O=C(NCCN1CCOCC1)Nc1nc2ccc(Sc3nnc4ccc(-c5ccc(F)cc5)nn34)cc2s1	8.19	4.1	8.34	19.4		
CC(=O)C(C#N)C(=O)Nc1ccc(C(F)(F)F)cc1 (centres undefined)	367	0.16	0.007	350		
O[C@@H]1[C@@H](O)[C@@H](O)OC[C@H]1O	1.9	0.23	2.38	1.2		
COc1ccc(CC(NC(=O)CC(C)(C)N)C(=O)NC(Cc2c[nH]cn2)C(=O)N[C@@H](CC2CCCCC2)[C@@H](O)[C@@H](O)CC(C)C)cc1 (some centres undefined)	3.1	0.11	0.45	1.72	0.07	
C[C@@H]1C[C@H]2C3C[C@H](F)C4=CC(=O)C=C[C@]4(C)[C@@]3(F)[C@@H](O)C[C@]2(C)[C@@]1(OC(=O)c1ccco1)C(=O)SCF (some centres undefined)		4.95	13.4	10.6		
CCC(C)CC(C)CCCCCCCCC(=O)NC1CC(O)C(NCCN)NC(=O)C2C(O)CCN2C(=O)C(C(O)CCN)NC(=O)C(C(O)C(O)c2ccc(O)cc2)NC(=O)C2CC(O)CN2C(=O)C(C(C)O)NC1=O (centres undefined)					0.035	
C/C=C(\C)C(=O)O[C@H]1[C@H](OC(C)=O)[C@]2(CO)[C@H](O)C[C@]3(C)C(=CC[C@@H]4[C@@]5(C)CC[C@H](O[C@@H]6OC(C(=O)O)[C@@H](O[C@@H]7O[C@H](CO)[C@@H](O)[C@H](O)[C@H]7O)[C@H](O)[C@H]6O[C@@H]6O[C@H](CO)[C@@H](O)[C@H](O)[C@H]6O)[C@](C)(CO)[C@@H]5CC[C@]43C)[C@@H]2CC1(C)C (some centres undefined)	2.85	0.28	1.65	2.4		
NCCc1ccc(O)c(O)c1	0.19	0.74	65.9	0.42	0.87	
CN(C)N=Nc1nc[nH]c1C(N)=O	7.8	1.2	2.6	6.2	1	
CCN(CC)CCNC(=O)c1cc(S(C)(=O)=O)ccc1OC	3.8	1.1	4.7	3.2		
CC(=O)OC1=C2C(C)[C@@H](OC(=O)C(O)C(NC(=O)OC(C)(C)C)c3ccccc3)C[C@@](O)([C@@H](OC(=O)c3ccccc3)[C@@H]3[C@]4(OC(C)=O)CO[C@@H]4C[C@@H]4C[C@@]43C1=O)C2(C)C (some centres undefined)	26.1	17	10.8	33.9		
